PMC5501398 (PLoS ONE, 2017)

Biological target: T1, VcIIPK (Vibrio cholerae, UniProt Q9KQJ0)
T1 construct: gene VC_2008
Assay: biochemical

T1 sequence (Q9KQJ0 1-481 limits assumed): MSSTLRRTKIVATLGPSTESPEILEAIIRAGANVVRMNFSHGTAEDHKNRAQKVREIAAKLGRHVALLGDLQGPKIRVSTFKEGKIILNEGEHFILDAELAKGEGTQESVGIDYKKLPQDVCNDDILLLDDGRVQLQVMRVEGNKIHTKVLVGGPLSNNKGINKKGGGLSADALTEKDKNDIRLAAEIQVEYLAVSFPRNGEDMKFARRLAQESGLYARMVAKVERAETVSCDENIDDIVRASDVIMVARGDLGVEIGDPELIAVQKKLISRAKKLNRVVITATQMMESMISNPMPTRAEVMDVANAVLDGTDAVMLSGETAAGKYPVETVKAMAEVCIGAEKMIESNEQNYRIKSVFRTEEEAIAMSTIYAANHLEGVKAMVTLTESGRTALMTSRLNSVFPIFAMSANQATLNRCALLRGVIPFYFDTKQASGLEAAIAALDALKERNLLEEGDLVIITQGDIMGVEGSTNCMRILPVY

With `O=C(O)C(=O)O` [oxalate] as the molecule, how does the Ki read?
The Ki was 71 ± 6 µM.
